Data from the METLIN SMRT retention time set (Domingo-Almenara et al. 2019).

Assay: gradient 5% acetonitrile 3 min, to 50% in 2 min, to 85% in 15 min, held 3 min, 100 µL/min
Details: column: Zorbax Extend-C18 2.1 x 50 mm; eluents: water / acetonitrile, 0.1% formic acid
Summary of the method: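 Data were gathered over 3 months by HPLC coupled to a quadrupole time-of-flight mass spectrometer, operated in positive and negative ionization mode. Mixtures of ~100 pure standards ran on a Zorbax Extend-C18 column (2.1 × 50 mm, 1.8 μm) at 100 μL/min, with water and acetonitrile each containing 0.1% formic acid and dead and dwell volumes of 40 μL and 900 μL. Retention time was read from adduct peaks picked by computer and checked manually.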

Row | RP-LC retention time [s] | Structure (SMILES)
1 | 563 | CCNc1nccc(N2CCC(CC(=O)NCC(C)C)CC2)n1
2 | 736 | O=C(CC1CCCC1)NCCc1nc2cccnc2n1-c1ccccc1
3 | 1080 | Cc1nc2cc(-c3noc(/C=C/c4cccs4)n3)ccc2o1
4 | 719 | COc1ccccc1CNC(=O)C1CCc2nc(N3CCOCC3)ncc2C1 (stereo not drawn)
5 | 571 | Cn1cnc2cc(CNC(=O)c3cccs3)ccc21
6 | 818 | COc1ccc2cc(C(=O)N3CCC(C(C)C(=O)NCCc4c[nH]c5ccccc45)CC3)[nH]c2c1 (stereo not drawn)
7 | 846 | O=C(NCCc1csc(-c2ccccc2)n1)C1CCN(C(=O)c2cccc(Cl)c2)CC1
8 | 684 | O=C(NCc1ccccc1)C1CC(=O)N(c2n[nH]c3cccc(F)c23)C1 (stereo not drawn)
9 | 932 | O=C1CC(c2ccccc2)Oc2ccccc21 (stereo not drawn)
10 | 683 | CC(C)c1nc2c(c(=O)n1CC(=O)NCc1ccc(F)cc1)CCN(Cc1ccccc1)C2
11 | 1140 | Cc1nc2cc(-c3noc(-c4ccccc4Br)n3)ccc2o1
12 | 574 | CN(C)CCNC(=O)C1CCN(c2nc3ccc(-c4cncnc4)nc3s2)CC1
13 | 1110 | CCCNC(=O)CCc1nc2ccccc2n(CC(=O)Nc2ccc(OC)c(OC)c2)c1=O
14 | 803 | Cc1cc(Cl)ccc1NC(=O)C1CCCN(c2nnc(C)c3c(C)n(-c4ccccc4)nc23)C1 (stereo not drawn)
15 | 702 | O=C(Cc1cccs1)N1CCC(c2noc(-c3ccncc3)n2)C1 (stereo not drawn)
16 | 680 | COCC(=O)N1CCCc2ccc(NC(=O)c3cc(C)on3)cc21
17 | 1040 | c1ccc2c(OCc3nc4c5ccccc5ncn4n3)cccc2c1
18 | 827 | CCN1c2ccc(F)cc2C(=O)NC12CCN(C(=O)c1cccc(C)c1)CC2
19 | 635 | CCOc1ccc(CNC(=O)C2CCN(c3cncnc3N3CCOCC3)CC2)cc1
20 | 787 | Cc1ccc2c(c1)N(C(=O)Cn1c(C(C)C)nc3c(c1=O)CCN(Cc1ccccc1)C3)CCO2
21 | 1160 | O=C(Oc1ccccc1)N(c1ccccc1)c1ccccc1
22 | 980 | COc1ccc(Cl)cc1NC(=O)NCCc1cn(CC(C)C)c2ncccc12

Row | RP-LC retention time [s] | Structure (SMILES)
23 | 593 | Cc1ccc2c(Nc3cc(F)cc(F)c3)c(C(=O)N3CCOCC3)cnc2n1
24 | 869 | Cc1ccc(Sc2ccccc2N2CCNCC2)c(C)c1
25 | 698 | O=C(c1cnccn1)N1CCCC1c1nc(CCOCC2CC2)no1 (stereo not drawn)
26 | 630 | CC(=O)c1sc(NC(=O)c2ccn(C)n2)nc1C
27 | 898 | CN(CCc1noc(COc2ccc(Cl)cc2Cl)n1)C(=O)c1ccco1
28 | 1100 | Cc1sc(C)c(S(=O)(=O)NCc2cccs2)c1-c1cc(C(F)(F)F)on1
29 | 689 | O=C(N1CCC(NS(=O)(=O)Cc2ccccc2F)CC1)N1C[C@H]2C[C@H](C1)[C@H]1CCCC(=O)N1C2
30 | 811 | CCc1nnc(-c2ccc3ccn(CC(=O)Nc4ccc(C(=O)OC)cc4)c3c2)o1
31 | 832 | Cc1nc(-c2csc(S(=O)(=O)N3CCC(C(=O)NCc4ccc5c(c4)OCO5)CC3)c2)no1
32 | 824 | Cc1ccc(NC(=O)C2CCCN(S(=O)(=O)c3c[nH]c(C(=O)N4CCCC4)c3)C2)nc1 (stereo not drawn)
33 | 698 | CCOc1ccccc1NC(=O)N(Cc1cccs1)C1CCN(CC)CC1
34 | 629 | CN(C)CCNC(=O)C(C)(C)Oc1ccc(Cl)cc1
35 | 777 | CC(=O)Nc1cccc2c(C(=O)NCCC(C)C)ccnc12
36 | 655 | CCCNC(=O)c1cn(-c2ccc(NC(=O)C3CC3)cn2)cn1
37 | 638 | CC(C)c1ccc(N2C(=O)CC(N3CCC(C(N)=O)CC3)C2=O)cc1 (stereo not drawn)
38 | 786 | Cc1cc(C(=O)Nc2sc(C)c(C)c2C#N)on1
39 | 760 | COc1cccc(NC(=O)N2CCC3(C2)C(=O)N(C)c2ccccc23)c1 (stereo not drawn)
40 | 694 | Cc1cc(NC(=O)CN(C)CCC#N)nc2c1c(=O)oc1ccccc12
41 | 575 | CCN1CCN(CCNC(=O)CCCN2C(=O)CCn3nc(-c4cccn4C)cc32)CC1
42 | 809 | COc1ccc(OC)c(S(=O)(=O)N2CCC([C@H]3[C@@H](OC)C(=O)N3C(C)C)CC2)c1
43 | 898 | CC(C)c1ccc(NC(=O)CN2C(=O)CC(C)(C)S(=O)(=O)c3ccccc32)cc1
44 | 635 | Cc1cccc(C)c1NC(=O)N1CCC(c2cc(=O)n3nccc3n2C)CC1

Row | RP-LC retention time [s] | Structure (SMILES)
45 | 1130 | CCCCn1c(=O)c2ccccc2n(Cc2nc(-c3ccccc3OCC)no2)c1=O
46 | 1100 | CCCCOP(=O)(OCCCC)C1(C)CC(=O)CC(C)(C)C1 (stereo not drawn)
47 | 698 | COc1ccc(N2CCN(C(=O)[C@@H]3[C@H](c4cc(OC)c(OC)c(OC)c4)c4cc5c(cc4[C@H](O)[C@H]3CO)OCO5)CC2)cc1
48 | 753 | O=C(CSc1c(-c2ccccc2)[nH]c2ccccc12)NCC1CCCO1 (stereo not drawn)
49 | 836 | CC(NC(=O)c1cn2cc(Cl)ccc2n1)c1ccc(F)cc1 (stereo not drawn)
50 | 605 | c1ccc(COCCc2noc(C3CN(Cc4ccncc4)C3)n2)cc1
51 | 786 | CN(CC1CCOCC1)S(=O)(=O)Cc1ccccc1F
52 | 689 | CCn1cc(-c2ccncc2)cc1C(=O)NCc1ccc(SC)cc1
53 | 1120 | CCOc1ccccc1-c1nn2c(CSc3ccccc3)nnc2s1
54 | 747 | CCOc1cccc2cc(C(=O)Nc3ccc(S(N)(=O)=O)cc3)oc12
55 | 598 | COCCCNC(=O)N1CC(c2nc(C)no2)C2(CCOCC2)C1 (stereo not drawn)
56 | 1190 | CC(=O)c1cccc(NC(=O)COc2ccccc2-c2nnc(-c3ccccc3)o2)c1
57 | 635 | CCN1CCc2nc(-c3ccc(F)cc3)n(CC(=O)N3CCc4ccccc4C3)c(=O)c2C1
58 | 605 | Cc1ccc(CNC(=O)C2CCN(c3cncnc3N3CCOCC3)CC2)o1
59 | 790 | COCCNc1nc(-c2ccc(C(C)(C)C)cc2)nc2ccccc12
60 | 790 | COc1cc(-c2cccc(Cl)c2)nc2ccc(NC(=O)c3ccco3)cc12
61 | 713 | Cc1cc2c(N3CCCC(C(=O)NCc4cccc(Cl)c4)C3)nccc2s1 (stereo not drawn)
62 | 1040 | N#Cc1cnc(-c2ccc(F)cc2)n(CC(=O)Nc2ccc(C(F)(F)F)cc2)c1=O
63 | 794 | COc1cccc(N2CCN(C(=O)C3CCN(c4ncnc5c4oc4ccccc45)CC3)CC2)c1
64 | 605 | Cc1ccc2cc(CCC(=O)NCCCN3CCCC(C)C3)c(=O)[nH]c2c1 (stereo not drawn)
65 | 775 | COCc1c(C(=O)O)nnn1-c1ccc(C(F)(F)F)cc1
66 | 793 | Cc1ccc(CNC(=O)c2cn(-c3ccc(NC(=O)C(C)C)cn3)cn2)cc1

Row | Structure (SMILES) | RP-LC retention time [s]
67 | COc1ccc2c(c1)C1(CCN(C(=O)c3cccc(Cl)c3)C1)C(=O)N2C (stereo not drawn) | 831
68 | CCC(C)NC(=O)c1c(O)c2sccc2n(Cc2ccccc2)c1=O (stereo not drawn) | 1310
